Data on six compounds can be found in ChEMBL document CHEMBL5728279, “Toll-like receptor 7 (TLR7) agonists having a pyridine or pyrazine moiety, conjugates thereof, and methods and uses therefor” (2021).

The experiment deals with T1, Toll-like receptor 7 (Homo sapiens, UniProt Q9NYK1).
T1 sequence (Q9NYK1 whole entry): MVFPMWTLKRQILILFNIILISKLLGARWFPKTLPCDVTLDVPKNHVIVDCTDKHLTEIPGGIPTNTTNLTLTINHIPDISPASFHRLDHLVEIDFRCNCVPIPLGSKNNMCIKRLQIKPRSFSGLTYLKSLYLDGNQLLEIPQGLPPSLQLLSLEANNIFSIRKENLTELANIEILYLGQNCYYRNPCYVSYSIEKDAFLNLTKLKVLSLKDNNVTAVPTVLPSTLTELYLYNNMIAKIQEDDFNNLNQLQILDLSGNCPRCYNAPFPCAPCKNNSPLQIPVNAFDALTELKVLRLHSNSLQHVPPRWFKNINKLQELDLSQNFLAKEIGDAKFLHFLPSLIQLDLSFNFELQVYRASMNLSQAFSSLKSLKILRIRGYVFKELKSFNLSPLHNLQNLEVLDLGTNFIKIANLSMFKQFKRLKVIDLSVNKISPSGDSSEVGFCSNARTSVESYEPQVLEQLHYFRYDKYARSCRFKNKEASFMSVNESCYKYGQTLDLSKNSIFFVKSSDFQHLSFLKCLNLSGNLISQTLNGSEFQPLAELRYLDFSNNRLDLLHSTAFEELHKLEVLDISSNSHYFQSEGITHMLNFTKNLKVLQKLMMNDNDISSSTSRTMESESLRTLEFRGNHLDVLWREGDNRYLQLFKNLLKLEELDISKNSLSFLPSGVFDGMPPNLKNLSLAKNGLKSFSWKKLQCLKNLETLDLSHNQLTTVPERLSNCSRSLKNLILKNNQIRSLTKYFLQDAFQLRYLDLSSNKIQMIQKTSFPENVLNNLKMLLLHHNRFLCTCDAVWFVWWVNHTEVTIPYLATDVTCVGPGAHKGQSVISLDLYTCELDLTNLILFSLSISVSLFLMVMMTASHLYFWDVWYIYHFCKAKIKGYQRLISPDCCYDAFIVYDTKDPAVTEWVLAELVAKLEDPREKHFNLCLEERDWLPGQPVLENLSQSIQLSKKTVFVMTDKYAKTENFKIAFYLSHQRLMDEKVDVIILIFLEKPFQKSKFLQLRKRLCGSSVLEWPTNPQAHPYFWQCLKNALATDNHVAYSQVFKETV
Description: HEK-Blue™ TLR7 cells were added to each well of a 384-well tissue-culture plate (15,000 cells per well) and incubated 16-18 h at 37° C., 5% CO2. Compounds (100 nl) were dispensed into wells containing the HEK-Blue™ TLR cells and the treated cells were incubated at 37° C., 5% CO2. After 18 h treatment ten microliters of freshly-prepared Quanti-Blue™ reagent (Invivogen) was added to each well, incubated for 30 min (37° C., 5% CO2) and SEAP levels measured using an Envision plate reader (OD=620 nm).
In the case of `CCCCOc1nc(N)c2nc(O)n(Cc3ccc(CNCc4ccccc4)nc3)c2n1`, the midpoint of the response, the EC50, lay at 110 nM.

As for `CCCCOc1nc(N)c2nc(O)n(Cc3ccc(CNC4CCCC4)nc3)c2n1`, the midpoint of the response, the EC50, lay at 2.9 nM.

Turning to `CCCCOc1nc(N)c2nc(O)n(Cc3ccc(CNCc4ccccc4)cn3)c2n1`, the EC50 (commonly the concentration giving half of the maximal effect) was 22 nM.

In turn, `CCCCOc1nc(N)c2nc(O)n(Cc3ccc(CN4CCC(N)CC4)nc3)c2n1` came in with an EC50 of 3.1 nM.

Compound `CCCCCCNCc1ccc(Cn2c(O)nc3c(N)nc(OCCCC)nc32)cn1` had an EC50 of 11 nM.

The compound `CCCCOc1nc(N)c2nc(O)n(Cc3ccc(CN4CCC(CN)CC4)nc3)c2n1` gave an EC50 of 4.9 nM.
